Experimental findings from publication PMC9186362, “Design and biological evaluation of substituted 5,7-dihydro-6H-indolo[2,3-c]quinolin-6-one as novel selective Haspin inhibitors” (Journal of Enzyme Inhibition and Medicinal Chemistry, 2022) are described below.

Molecules are shown by their SMILES.

Experiment [1] deals with HsCdk9/Cyc E (Homo sapiens, UniProt P50750). Briefly: ADP-Glo kinase assay. Type of experiment: biochemical, Homo sapiens (Hs). Particulars: mean n = 2, % of maximum activity of DMSO control, read-out: % Residual activity at 1 μM CDK9. The protocol: (§1) Kinase activities were determined using the ADP-Glo methodology (ADP-Glo Kinase Assay; Promega) according to the assay described by Nguyen et al.[32] except for MmCLK1. The later was assayed in the following buffer: 10 mM MgCl2, 1 mM EGTA, 1 mM DTT, 25 mM Tris-HCl pH 7.5, 50 µg/ml heparin, 0.15 mg/ml BSA, with 0.027 µg/µl of the following peptide: GRSRSRSRSRSR as substrate.
On the technique in general: ADP-Glo turns the ADP formed in a reaction into a luminescent signal.

Experiment [2] concerns the target HsCdk5/p25 (Homo sapiens, UniProt Q00535). Briefly: ADP-Glo kinase assay. It counts as biochemical, Homo sapiens (Hs). Particulars: mean n = 2, % of maximum activity of DMSO control, read-out: % Residual activity at 1 μM CDK5. How it is done: as §1
The target of experiment [3] is HsPIM1 (Homo sapiens, UniProt P11309). The experiment in a line: ADP-Glo kinase assay. Type of experiment: biochemical, Homo sapiens (Hs). Particulars: mean n = 2, % of maximum activity of DMSO control, read-out: % Residual activity at 1 μM PIM1. How it is done:
as §1

Experiment [4] concerns the target HsCdk2/Cyc A (Homo sapiens, UniProt P24941). Briefly: ADP-Glo kinase assay. Type of experiment: biochemical, Homo sapiens (Hs). Particulars: mean n = 2, % of maximum activity of DMSO control, read-out: % Residual activity at 1 μM CDK2. How it is done:
as §1

Experiment [5] deals with T1, HsHaspin (Homo sapiens, UniProt Q8TF76).
T1 sequence (Q8TF76 1-798): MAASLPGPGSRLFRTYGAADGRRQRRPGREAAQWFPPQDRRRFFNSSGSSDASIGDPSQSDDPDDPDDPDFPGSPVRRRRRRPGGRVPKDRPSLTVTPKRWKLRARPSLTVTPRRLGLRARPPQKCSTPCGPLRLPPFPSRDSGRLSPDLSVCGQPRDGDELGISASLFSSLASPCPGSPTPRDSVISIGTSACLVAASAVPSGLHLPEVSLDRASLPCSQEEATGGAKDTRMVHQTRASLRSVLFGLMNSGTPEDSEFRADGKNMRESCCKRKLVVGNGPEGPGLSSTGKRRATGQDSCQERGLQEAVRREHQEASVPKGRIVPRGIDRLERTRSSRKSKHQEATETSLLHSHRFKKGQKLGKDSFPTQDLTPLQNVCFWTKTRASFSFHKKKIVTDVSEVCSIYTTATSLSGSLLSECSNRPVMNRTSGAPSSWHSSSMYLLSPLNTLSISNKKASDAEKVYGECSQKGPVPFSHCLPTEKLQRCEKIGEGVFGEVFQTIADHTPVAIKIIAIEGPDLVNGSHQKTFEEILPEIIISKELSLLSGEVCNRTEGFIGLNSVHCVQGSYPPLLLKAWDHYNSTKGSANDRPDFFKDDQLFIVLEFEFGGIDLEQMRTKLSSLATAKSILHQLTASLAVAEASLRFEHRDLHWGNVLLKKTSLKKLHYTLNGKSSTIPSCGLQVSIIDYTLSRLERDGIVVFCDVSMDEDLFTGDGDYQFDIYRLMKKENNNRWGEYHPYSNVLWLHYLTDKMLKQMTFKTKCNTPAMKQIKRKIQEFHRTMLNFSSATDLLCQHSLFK
The experiment in a line: ADP-Glo kinase assay. It counts as biochemical, Homo sapiens (Hs). How it is done:
as §1

Experiment [6] concerns the target HsGSK3β (Homo sapiens, UniProt P49841). The experiment in a line: ADP-Glo kinase assay. Particulars: mean n = 2, % of maximum activity of DMSO control, read-out: % Residual activity at 1 μM GSK3β. Type of experiment: biochemical, Homo sapiens (Hs). The protocol: as §1
For experiment [7], the target named is T2, RET V804E (Homo sapiens, UniProt P07949, V804E).
T2 construct: purchased Life Technologies (SelectScreen service)
Briefly: SelectScreen ZLYTE. Type of experiment: biochemical. Particulars: ATP Km, read-out: Percentage of inhibition. The protocol: (§2) We further evaluated the selectivity profile of compound 55 on a larger panel of kinases (SelectScreen Whole Panel, Life Technologies). The inhibition profile of 55, evaluated at 1 μM, is depicted on a dendrogram on Figure 3 where kinases inhibited by a minimum of 80% are shown. A full list of the kinases tested is shown on Table S1 in supplementary information.

For experiment [8], the target named is T3, DYRK3 (Homo sapiens, UniProt O43781).
T3 construct: purchased Life Technologies (SelectScreen service)
Briefly: SelectScreen ZLYTE. Type of experiment: biochemical. Particulars: ATP Km, read-out: Percentage of inhibition. How it is done: as §2

Experiment [9] has as its target T4, TAOK2 (TAO1) (Homo sapiens, UniProt Q9UL54).
T4 construct: purchased Life Technologies
The experiment in a line: SelectScreen ZLYTE. It counts as biochemical. Particulars: ATP Km, read-out: Percentage of inhibition. The protocol:
as §2

Experiment [10] concerns the target T5, GRK6 (Homo sapiens, UniProt P43250).
T5 construct: purchased Life Technologies
The experiment in a line: SelectScreen ZLYTE. It counts as biochemical. Particulars: ATP Km, read-out: Percentage of inhibition. The protocol: as §2

The target in experiment [11] is T6, EPHA2 (Homo sapiens, UniProt P29317).
T6 construct: purchased Life Technologies
Briefly: SelectScreen ZLYTE. It counts as biochemical. Particulars: ATP Km, read-out: Percentage of inhibition. The protocol:
as §2

Experiment [12] addresses T7, PDGFRB (PDGFR beta) (Homo sapiens, UniProt P09619).
T7 construct: purchased Life Technologies (SelectScreen service)
Briefly: SelectScreen ZLYTE. It counts as biochemical. Particulars: ATP Km, read-out: Percentage of inhibition. How it is done:
as §2

For experiment [13], the target named is PDGFRA T674I (Homo sapiens, UniProt P16234, T674I). Briefly: SelectScreen ZLYTE. It counts as biochemical. Particulars: ATP Km, read-out: Percentage of inhibition. How it is done: as §2
Sequence of PDGFRA T674I (P16234 24-1089 T674I): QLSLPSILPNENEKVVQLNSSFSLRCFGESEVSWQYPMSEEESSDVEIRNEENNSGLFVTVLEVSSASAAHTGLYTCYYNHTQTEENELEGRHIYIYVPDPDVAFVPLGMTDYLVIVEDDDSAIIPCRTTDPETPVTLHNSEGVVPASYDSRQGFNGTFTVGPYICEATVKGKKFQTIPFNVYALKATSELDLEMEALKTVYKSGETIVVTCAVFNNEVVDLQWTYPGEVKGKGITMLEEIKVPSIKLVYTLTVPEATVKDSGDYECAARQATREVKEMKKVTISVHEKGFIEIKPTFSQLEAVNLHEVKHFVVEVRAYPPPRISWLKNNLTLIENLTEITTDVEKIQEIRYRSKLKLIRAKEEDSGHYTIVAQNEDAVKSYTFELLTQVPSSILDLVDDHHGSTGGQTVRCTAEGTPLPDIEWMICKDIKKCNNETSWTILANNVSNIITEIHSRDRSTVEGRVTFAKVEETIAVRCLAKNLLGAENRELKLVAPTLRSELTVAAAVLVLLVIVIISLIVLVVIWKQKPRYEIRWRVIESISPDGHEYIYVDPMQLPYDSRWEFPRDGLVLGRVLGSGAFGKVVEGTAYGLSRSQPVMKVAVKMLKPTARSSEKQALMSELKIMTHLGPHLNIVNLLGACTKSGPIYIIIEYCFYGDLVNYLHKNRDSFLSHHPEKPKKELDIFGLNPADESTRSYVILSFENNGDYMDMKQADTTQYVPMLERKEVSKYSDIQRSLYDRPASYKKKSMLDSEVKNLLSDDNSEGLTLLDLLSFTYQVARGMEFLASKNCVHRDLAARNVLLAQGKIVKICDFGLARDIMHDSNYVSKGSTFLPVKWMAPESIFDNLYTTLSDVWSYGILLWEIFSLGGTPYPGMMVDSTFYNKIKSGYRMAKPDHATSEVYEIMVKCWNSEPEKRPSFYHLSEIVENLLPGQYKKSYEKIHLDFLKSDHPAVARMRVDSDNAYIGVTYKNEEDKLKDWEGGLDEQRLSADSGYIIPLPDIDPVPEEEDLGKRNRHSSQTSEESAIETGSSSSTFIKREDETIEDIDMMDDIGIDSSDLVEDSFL
The target of experiment [14] is T8, STK23 (MSSK1) (Homo sapiens, UniProt Q9UPE1).
T8 construct: purchased Life Technologies
T8 sequence (Q9UPE1 whole entry): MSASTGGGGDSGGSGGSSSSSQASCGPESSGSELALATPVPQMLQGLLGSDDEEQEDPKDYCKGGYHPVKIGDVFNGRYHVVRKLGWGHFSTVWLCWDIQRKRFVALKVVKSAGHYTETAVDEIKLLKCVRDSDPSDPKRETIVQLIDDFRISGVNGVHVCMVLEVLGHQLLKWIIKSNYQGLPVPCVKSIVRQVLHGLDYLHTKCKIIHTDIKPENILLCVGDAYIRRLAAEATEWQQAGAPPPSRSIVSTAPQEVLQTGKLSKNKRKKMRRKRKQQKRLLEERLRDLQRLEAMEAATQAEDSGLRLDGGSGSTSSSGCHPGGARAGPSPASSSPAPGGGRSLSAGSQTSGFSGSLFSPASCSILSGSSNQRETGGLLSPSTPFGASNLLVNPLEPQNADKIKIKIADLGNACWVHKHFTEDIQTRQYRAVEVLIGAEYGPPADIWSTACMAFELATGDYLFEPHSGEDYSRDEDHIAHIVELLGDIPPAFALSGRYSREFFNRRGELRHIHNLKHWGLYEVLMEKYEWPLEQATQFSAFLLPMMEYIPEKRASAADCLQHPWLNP
The experiment in a line: SelectScreen ZLYTE. It counts as biochemical. Particulars: ATP Km, read-out: Percentage of inhibition. The protocol: as §2

Experiment [15] addresses T9, EPHB1 (Homo sapiens, UniProt P54762).
T9 construct: purchased Life Technologies (SelectScreen Whole Panel)
The experiment in a line: SelectScreen ZLYTE. Type of experiment: biochemical. Particulars: ATP Km, read-out: Percentage of inhibition. The protocol: as §2

Experiment [16] deals with T10, STK22D (TSSK1) (Homo sapiens, UniProt Q9BXA7).
T10 construct: purchased Life Technologies (SelectScreen Whole Panel service)
Briefly: SelectScreen ZLYTE. It counts as biochemical. Particulars: ATP Km, read-out: Percentage of inhibition. How it is done:
as §2

The target in experiment [17] is AURKA (Aurora A) (Homo sapiens, UniProt O14965). The experiment in a line: SelectScreen ZLYTE. Type of experiment: biochemical. Particulars: ATP Km, read-out: Percentage of inhibition. The protocol:
as §2

The target of experiment [18] is T11, ROS1 (Homo sapiens, UniProt P08922).
T11 construct: purchased Life Technologies
Briefly: SelectScreen ZLYTE. Type of experiment: biochemical. Particulars: ATP Km, read-out: Percentage of inhibition. The protocol:
as §2

In experiment [19] the target is T12, PEAK1 (Homo sapiens, UniProt Q9H792).
T12 construct: purchased Life Technologies (SelectScreen Whole Panel)
Briefly: SelectScreen ZLYTE. Type of experiment: biochemical. Particulars: ATP Km, read-out: Percentage of inhibition. How it is done:
as §2

The target in experiment [20] is T13, PKN1 (PRK1) (Homo sapiens, UniProt Q16512).
T13 construct: purchased Life Technologies
T13 sequence (Q16512 whole entry): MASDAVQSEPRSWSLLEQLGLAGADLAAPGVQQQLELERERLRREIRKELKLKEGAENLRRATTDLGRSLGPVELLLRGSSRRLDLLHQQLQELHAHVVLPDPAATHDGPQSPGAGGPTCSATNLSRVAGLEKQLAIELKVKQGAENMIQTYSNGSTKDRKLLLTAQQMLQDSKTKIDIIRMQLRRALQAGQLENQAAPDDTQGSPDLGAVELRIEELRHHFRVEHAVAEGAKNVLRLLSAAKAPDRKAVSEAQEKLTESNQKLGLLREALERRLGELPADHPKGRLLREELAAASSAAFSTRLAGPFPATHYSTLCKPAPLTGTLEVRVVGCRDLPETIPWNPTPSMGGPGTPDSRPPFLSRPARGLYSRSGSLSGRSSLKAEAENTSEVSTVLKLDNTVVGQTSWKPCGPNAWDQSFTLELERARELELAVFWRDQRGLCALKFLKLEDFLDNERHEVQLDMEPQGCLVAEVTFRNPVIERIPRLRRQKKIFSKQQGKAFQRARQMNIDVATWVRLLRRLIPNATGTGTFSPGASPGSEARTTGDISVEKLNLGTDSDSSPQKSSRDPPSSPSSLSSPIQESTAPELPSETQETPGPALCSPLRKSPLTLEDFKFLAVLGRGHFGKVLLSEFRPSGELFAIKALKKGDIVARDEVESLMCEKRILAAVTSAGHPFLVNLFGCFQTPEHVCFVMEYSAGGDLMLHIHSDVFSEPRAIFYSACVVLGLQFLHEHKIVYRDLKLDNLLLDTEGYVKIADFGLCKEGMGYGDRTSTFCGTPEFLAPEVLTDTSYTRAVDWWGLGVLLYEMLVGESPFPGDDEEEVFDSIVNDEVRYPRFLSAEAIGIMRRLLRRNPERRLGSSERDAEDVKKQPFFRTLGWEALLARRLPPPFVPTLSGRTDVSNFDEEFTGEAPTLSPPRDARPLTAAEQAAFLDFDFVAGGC
Briefly: SelectScreen ZLYTE. Particulars: ATP Km, read-out: Percentage of inhibition. It counts as biochemical. The protocol:
as §2

Experiment [21] addresses T14, PHKG2 (Homo sapiens, UniProt P15735).
T14 construct: purchased Life Technologies (SelectScreen)
The experiment in a line: SelectScreen ZLYTE. Particulars: ATP Km, read-out: Percentage of inhibition. Type of experiment: biochemical. The protocol: as §2

Sequence of AURKA (Aurora A) (O14965 whole entry): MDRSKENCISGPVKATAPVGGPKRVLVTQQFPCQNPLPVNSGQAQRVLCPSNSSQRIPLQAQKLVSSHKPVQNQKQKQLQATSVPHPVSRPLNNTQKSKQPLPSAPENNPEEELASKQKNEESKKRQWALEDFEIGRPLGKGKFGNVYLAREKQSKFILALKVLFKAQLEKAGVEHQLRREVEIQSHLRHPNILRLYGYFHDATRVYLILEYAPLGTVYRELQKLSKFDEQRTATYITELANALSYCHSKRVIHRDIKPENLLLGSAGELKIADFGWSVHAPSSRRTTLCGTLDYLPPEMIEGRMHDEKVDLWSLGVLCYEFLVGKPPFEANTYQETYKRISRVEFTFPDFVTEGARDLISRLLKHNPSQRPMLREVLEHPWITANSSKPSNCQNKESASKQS
T5 sequence (P43250 whole entry): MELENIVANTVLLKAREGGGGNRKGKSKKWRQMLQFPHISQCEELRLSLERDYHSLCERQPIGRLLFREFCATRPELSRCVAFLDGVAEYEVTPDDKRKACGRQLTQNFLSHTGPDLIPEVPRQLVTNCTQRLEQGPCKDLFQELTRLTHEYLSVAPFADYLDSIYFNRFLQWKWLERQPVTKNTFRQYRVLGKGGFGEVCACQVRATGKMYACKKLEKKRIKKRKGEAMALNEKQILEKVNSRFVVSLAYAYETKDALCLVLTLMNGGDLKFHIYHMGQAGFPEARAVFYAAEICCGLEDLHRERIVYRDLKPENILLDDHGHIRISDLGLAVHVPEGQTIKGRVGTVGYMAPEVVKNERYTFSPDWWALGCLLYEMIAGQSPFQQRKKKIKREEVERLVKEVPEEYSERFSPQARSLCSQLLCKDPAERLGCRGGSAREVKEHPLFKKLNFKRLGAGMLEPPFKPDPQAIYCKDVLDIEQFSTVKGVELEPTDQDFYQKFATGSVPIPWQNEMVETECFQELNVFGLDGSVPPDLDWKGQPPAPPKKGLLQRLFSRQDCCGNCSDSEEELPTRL
Sequence of HsPIM1 (P11309 whole entry): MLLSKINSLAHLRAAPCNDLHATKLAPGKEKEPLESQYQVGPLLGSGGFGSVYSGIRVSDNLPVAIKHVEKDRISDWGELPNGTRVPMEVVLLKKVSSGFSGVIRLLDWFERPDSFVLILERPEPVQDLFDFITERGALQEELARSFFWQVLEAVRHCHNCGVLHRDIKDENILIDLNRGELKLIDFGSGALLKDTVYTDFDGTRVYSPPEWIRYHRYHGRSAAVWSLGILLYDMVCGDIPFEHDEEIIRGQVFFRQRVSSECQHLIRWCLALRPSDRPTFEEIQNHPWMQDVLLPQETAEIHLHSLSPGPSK
T14 sequence (P15735 whole entry): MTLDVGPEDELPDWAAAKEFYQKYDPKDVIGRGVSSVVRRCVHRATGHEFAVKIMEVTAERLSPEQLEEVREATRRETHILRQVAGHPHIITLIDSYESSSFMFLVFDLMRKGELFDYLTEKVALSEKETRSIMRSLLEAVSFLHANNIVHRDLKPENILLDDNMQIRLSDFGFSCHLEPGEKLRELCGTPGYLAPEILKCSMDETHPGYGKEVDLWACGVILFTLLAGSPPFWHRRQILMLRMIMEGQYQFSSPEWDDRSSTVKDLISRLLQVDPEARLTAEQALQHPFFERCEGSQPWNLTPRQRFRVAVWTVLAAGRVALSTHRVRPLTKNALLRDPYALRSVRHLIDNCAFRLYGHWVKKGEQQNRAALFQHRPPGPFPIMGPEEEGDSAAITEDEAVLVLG
Sequence of HsGSK3β (P49841 whole entry): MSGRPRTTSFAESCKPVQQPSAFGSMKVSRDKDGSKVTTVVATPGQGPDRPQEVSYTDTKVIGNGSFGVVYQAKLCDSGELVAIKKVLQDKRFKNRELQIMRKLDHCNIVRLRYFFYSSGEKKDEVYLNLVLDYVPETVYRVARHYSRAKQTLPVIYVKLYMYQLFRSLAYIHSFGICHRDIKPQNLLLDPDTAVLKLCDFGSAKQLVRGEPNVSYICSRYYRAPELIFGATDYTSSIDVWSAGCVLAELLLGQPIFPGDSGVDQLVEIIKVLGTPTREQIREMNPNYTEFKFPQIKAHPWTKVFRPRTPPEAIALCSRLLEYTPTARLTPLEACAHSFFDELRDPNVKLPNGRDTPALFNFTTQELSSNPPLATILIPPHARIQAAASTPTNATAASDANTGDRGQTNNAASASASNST

One may read the IC50 as the midpoint of a concentration-inhibition curve. Usually inhibition stands for the relative decrease from the control value, in per cent. As for `COc1ccc2[nH]c3c(=O)[nH]c4ccc(O)cc4c3c2c1` [Compound 55, 2-Hydroxy-10-methoxy-5,7-dihydro-6H-indolo[2,3-c]quinolin-6-one], the remaining activity at 1 µM in experiment [1] was determined as 17%; in experiment [2] it was 53%; in experiment [3], 22%; in experiment [4], 38%; in [5] (1 μM, mean n = 2, % of maximum activity of DMSO control, read-out: % Residual activity at 1 μM Haspin), 0%; in experiment [6], 20%. In addition, the IC50 in [5] (dose-response curve, each point in duplicate, read-out: Kinase inhibition (IC50) Haspin) was 2 nM. Further, the inhibition at 1 µM in [7] is 86%; in experiment [8], 86%; in [9] it was 3%; in [10] it was 32%; in experiment [11], 40%; in [12] it was 23%. Further, the inhibition at 1 µM amounted to 6% in [13]; 4% in [14]; 49% in experiment [15]; 19% in experiment [16]; 58% in experiment [17]; 29% in experiment [18]. Besides, the values for the inhibition at 1 µM in experiment [19], in [20] and in [21] were 50%, 4% and 8%, respectively.
